{
  "source": "patent US12678509B2",
  "about": "“Inhibitor of apoptosis (IAP) protein antagonists” (Sanford Burnham Prebys Medical Discovery Institute, priority 2019, dated 2026)",
  "key": {"NB-4": {"tested_on": "NB-4", "test": "Cell viability (CellTiter-Glo)", "assay_type": "cell-based, Human", "settings": "for IC50: Homo sapiens"}, "MOLM 13": {"tested_on": "MOLM 13", "test": "Cell viability (CellTiter-Glo), 6-day compound treatment", "assay_type": "cell-based, Human", "settings": "for IC50: Homo sapiens, MOLM-13, 144 h", "how_it_was_run": "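Cells plated at 1700 per well, left overnight at 37° C./5% CO2, then exposed to 10-fold compound dilutions for 6 days […]. Viability by CellTiter-Glo luminescence; IC50 from nonlinear regression fit.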"}, "SKOV-3": {"tested_on": "SKOV-3", "test": "Cell viability (CellTiter-Glo), 48 hrs", "assay_type": "cell-based", "settings": "Homo sapiens, SK-OV-3, 48 h, read-out: SKOV-3 Viability 48 h IC50"}, "BIR3 domain of XIAP": {"target": "BIR3 domain of XIAP (Homo sapiens, UniProt P98170)", "sequence (P98170 241-356 limits assumed)": "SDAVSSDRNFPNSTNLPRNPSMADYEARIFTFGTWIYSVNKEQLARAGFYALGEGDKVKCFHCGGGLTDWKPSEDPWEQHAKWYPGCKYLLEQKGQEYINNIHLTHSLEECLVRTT", "test": "Fluorescence polarization assay", "assay_type": "binding", "settings": "SMAC-FITC probe, Ki calculated from IC50", "how_it_was_run": "(§1)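 Competitive FP with 50 nM SMAC-FITC probe in 100 mM KH2PO4 pH 7.5, 50 μM ZnSO4, 1 mM TCEP; cIAP1 and XIAP at 800 nM, cIAP2 and ML-IAP at 1.5 μM. Compounds 30 μM to 1.5 nM in 3-fold steps; ex 485/em 535 nm. IC50 by nonlinear fit, converted to Ki via Nikolovska-Coleska equation.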"}, "BIR3 domain of cIAP1": {"target": "BIR3 domain of cIAP1 (Homo sapiens, UniProt Q13490)", "sequence (Q13490 253-363 limits assumed)": "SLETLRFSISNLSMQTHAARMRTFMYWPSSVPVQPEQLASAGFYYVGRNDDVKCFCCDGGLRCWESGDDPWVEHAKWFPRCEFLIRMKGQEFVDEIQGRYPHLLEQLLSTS", "test": "Fluorescence polarization assay", "assay_type": "binding", "settings": "SMAC-FITC probe, Ki calculated from IC50", "how_it_was_run": "as §1"}, "BIR3 domain of cIAP2": {"target": "BIR3 domain of cIAP2 (Homo sapiens, UniProt Q13489)", "sequence (Q13489 238-349 limits assumed)": "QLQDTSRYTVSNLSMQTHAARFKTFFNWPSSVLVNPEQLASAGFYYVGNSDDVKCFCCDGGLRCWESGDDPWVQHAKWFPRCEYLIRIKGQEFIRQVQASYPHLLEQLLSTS", "test": "Fluorescence polarization assay", "assay_type": "binding", "settings": "SMAC-FITC probe, Ki calculated from IC50", "how_it_was_run": "as §1"}, "ML-IAP": {"target": "T1, ML-IAP (Homo sapiens, UniProt Q96CA5)", "T1 sequence (Q96CA5 1-298)": "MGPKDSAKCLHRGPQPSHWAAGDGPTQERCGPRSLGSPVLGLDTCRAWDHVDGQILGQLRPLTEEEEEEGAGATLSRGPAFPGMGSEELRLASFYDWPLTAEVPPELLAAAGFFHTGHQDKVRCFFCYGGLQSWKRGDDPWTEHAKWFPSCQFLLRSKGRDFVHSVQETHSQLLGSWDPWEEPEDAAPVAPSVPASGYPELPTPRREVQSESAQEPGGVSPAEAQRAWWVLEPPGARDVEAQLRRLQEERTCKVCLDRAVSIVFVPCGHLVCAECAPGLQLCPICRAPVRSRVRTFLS", "test": "Fluorescence polarization assay", "assay_type": "binding", "settings": "SMAC-FITC probe, Ki calculated from IC50", "how_it_was_run": "as §1"}, "resting CD4+ T cells": {"tested_on": "resting CD4+ T cells", "test": "T cell activation (CD69 and CD25 expression, flow cytometry)", "assay_type": "cell-based", "settings": "resting CD4+ T cells of healthy human donors (FIG. 2)", "description": "(§2) Compound 18a was also tested for its impact on T cell activation and cytokine release. Peripheral blood mononuclear cells (PBMC) were isolated by Ficoll density gradient centrifugation (Histopaque, Sigma Aldrich) from buffy coats of three healthy human donors (San Diego Blood Bank). Resting CD4^+ T cells were subsequently isolated by negative selection using magnetic beads (Miltenyi Biotec). Cells were treated with compound 18a, or 50 ng/ml Phorbol myristate acetate (PMA) and 1 μM lonomycin, or Dynabeads Human T-Activator CD3/CD28 (ThermoFisher Scientific) at a bead-to-cell ratio of 1:1, or left untreated. Expression of the early and late activation markers CD69 and CD25 on CD4+ T cells was assessed by flow cytometry using a Phycoerythrin-labeled anti-CD69 antibody (BioLegend; Cat #310906) and an Allophycocyanin-labeled anti-CD25 antibody (BioLegend; Cat #302610). Cytokine expression levels in cultures of PBMC or resting CD4+ T cells were analyzed using the LEGENDplex Human Inflammation Panel 13-plex (BioLegend)."}, "[1]": {"tested_on": "PBMC or resting CD4+ T cells", "test": "Cytokine release (LEGENDplex Human Inflammation Panel 13-plex)", "assay_type": "cell-based", "settings": "PBMC or resting CD4+ T cells of healthy human donors (FIG. 3)", "description": "as §2"}, "[2]": {"tested_on": "latently infected cell line Jurkat 2D10", "test": "Combination with other LRA, Bliss Independence model, GFP expression", "assay_type": "cell-based", "settings": "Jurkat 2D10, 48 hours, with JQ1, I-BET 151, Bryostatin, Ingenol-3-angelate", "description": "Compound 18a was also tested in combination with other LRA reagents for synergistic activation of the latently infected cell line Jurkat 2D10. Jurkat 2D10 cells were treated with combinations of compound 18a and BET inhibitors (JQ1, I-BET 151) or PKC agonists (Bryostatin, Ingenol-3-angelate) for 48 hours. Reversal of HW latency was evaluated by analyzing GFP expression using flow cytometry. Synergy was assessed with the Bliss Independence model where the observed effect of a combination of compounds f12 is compared to the expected effect E(f12) that is calculated based on the observed effects of the individual compounds f1 and f2 using the formula E(f12)=f1+J2−(f1*f2). The difference between the observed effect of the combined compounds (f12) and the expected combined effect of the two compounds E(f12) is given as the excess over Bliss score (EOB). An EOB value greater than 0 indicates synergy between the compounds."}},
  "note": "Read-outs that look alike come from different tables or passages of the source.",
  "data": [
    {"smiles": "CN[C@@H](C)C(=O)N[C@H]1CCS[C@H]2CC(C)(C)[C@@H](C(=O)N[C@H]3c4ccccc4C[C@H]3OCC#CC#CCO[C@@H]3Cc4ccccc4[C@@H]3NC(=O)[C@H]3N4C(=O)[C@@H](NC(=O)[C@H](C)NC)CCS[C@H]4CC3(C)C)N2C1=O", "note": "[Compound 18a, (2S)-1-{[(4S,7S,9aS)-74{(1S,2R)-2-[(6-{[(1S,2R)-1-({[(4S,7S,9aS)-8,8-Dimethyl-4-{[(2S)-2-(methylammonio)propanoyl]amino}-5-oxooctahydropyrrolo[2,1-b][1,3]thiazepin-7-yl]carbonyl}amino)-2,3-dihydro-1H-inden-2-yl]oxy}hexa-2,4-diyn-1-yl)oxy]-2,3-dihydro-1H-inden-1-yl}carbamoyl)-8,8-dimethyl-5-oxooctahydropyrrolo[2,1-b][1,3]thiazepinyl]amino}-N-methyl-1-oxopropan-2-ammonium dichloride]", "values": [
      {"measurement": "IC50", "setting": "NB-4; NB-4, 72 h, read-out: NB-4 Viability 72 h IC50", "result": "< 10", "unit": "nM"},
      {"measurement": "IC50", "setting": "NB-4; NB-4, 144 h, read-out: IC50 6 d", "result": "< 10", "unit": "nM"},
      {"measurement": "Cell viability at max. concentration", "setting": "NB-4; NB-4, 6 d", "result": "I (I<10%)"},
      {"measurement": "IC50", "setting": "MOLM 13; read-out: IC50 6 d", "result": "10 to 100", "unit": "nM"},
      {"measurement": "IC50", "setting": "MOLM 13; read-out: MOLM 13 Viability 6 d IC50", "result": "10 to 100", "unit": "nM"},
      {"measurement": "Cell viability at max. concentration", "setting": "MOLM 13; MOLM 13, 6 d", "result": "I (I<10%)"},
      {"measurement": "IC50", "setting": "SKOV-3", "result": "< 10", "unit": "nM"},
      {"measurement": "Ki", "setting": "BIR3 domain of XIAP", "result": "≤ 50", "unit": "nM"},
      {"measurement": "Ki", "setting": "BIR3 domain of cIAP1", "result": "≤ 50", "unit": "nM"},
      {"measurement": "Ki", "setting": "BIR3 domain of cIAP2", "result": "50 to 100", "unit": "nM"},
      {"measurement": "Ki", "setting": "ML-IAP", "result": "50 to 100", "unit": "nM"},
      {"measurement": "activation of resting CD4+ T cells (CD69, CD25)", "setting": "resting CD4+ T cells", "result": "did not induce activation of resting CD4+ T cells"},
      {"measurement": "cytokine release", "setting": "[1]", "result": "did not induce"},
      {"measurement": "synergy with LRA compounds in reversal of HIV latency", "setting": "[2]", "result": "synergizes with the tested LRA compounds to reverse HW latency"}
    ]}
  ]
}
